Assay results published in paper PMC8999638, “Identification of Entry Inhibitors against Delta and Omicron Variants of SARS-CoV-2” (International Journal of Molecular Sciences, 2022).
Several values for one entry are separate records, joined by “and”; a condition that tells them apart may be missing. Identical values can stand only once. Counter-ions that a name gives are not always drawn. Like-named read-outs stand apart in the source and are kept apart here.

What was measured:
[1] = target: RBD-ACE2 attachment (RBD of viral spike protein and ACE2 receptor) (Severe acute respiratory syndrome coronavirus 2, UniProt P0DTC2); test: cell-based; design: species or system SARS-CoV-2; human; details: for inhibition at 20 µM / inhibition at 100 µM: HeLa; for inhibition at 20 µM: read-out: Positive Screening RBD Attachment Assay % Inhibition (20 μM); for inhibition at 100 µM: read-out: Positive Screening RBD Attachment Assay % Inhibition (100 μM)
NanoBiT = test: Negative screening HiBiT assay (NanoBiT activity); format: cell-based; details: for Negative Screening HiBiT Assay % Inhibition (20 μM): 20 μM drug; for Negative Screening HiBiT Assay % Inhibition (100 μM): 100 μM drug; for Negative Screening HiBiT Assay INHIBIT NanoBiT: >70% inhibition in 100 μM, then including >35% inhibition at 20 μM
in vitro = details: African green monkey
VERO E6 cells = details: for CC50: read-out: VeroE6 CC50, VERO E6 cells, CellTiter-Glo
SARS-CoV-2 = test: microbe, parasite or virus in culture; format: cell-based; details: for EC50: Severe acute respiratory syndrome coronavirus 2, Vero C1008, 120 h, read-out: EC50 SARS-CoV-2 PRNT
[2] = test system: spike-based pseudovirus (wild type) on SmBiT-ACE2 HeLa cells; test: microbe, parasite or virus in culture; format: cell-based, SARS-CoV-2
[3] = VeroE6 CC50, VERO E6 cells, CellTiter-Glo
[4] = Pseudovirus, HeLa, read-out: EC50 Pseudovirus Wild Type

| Molecule | Positive Screening RBD Attachment Assay Dose Response [1] | inhibition at 20 µM [1] [%] | inhibition at 100 µM [1] [%] | Negative Screening HiBiT Assay % Inhibition (20 μM) (NanoBiT) [%] | Negative Screening HiBiT Assay % Inhibition (100 μM) (NanoBiT) [%] | Negative Screening HiBiT Assay INHIBIT NanoBiT (NanoBiT) | CC50 (in vitro; [3]) [µM] | further results |
| --- | --- | --- | --- | --- | --- | --- | --- | --- |
| CC1(C)CCC(CN2CCN(c3ccc(C(=O)NS(=O)(=O)c4ccc(NCC5CCOCC5)c([N+](=O)[O-])c4)c(Oc4cnc5[nH]ccc5c4)c3)CC2)=C(c2ccc(Cl)cc2)C1 [ABT-199] | Yes | 51 | 96 | 0 | 43 | No | 17.3 | EC50 [1]: 39.1 µM |
| O=C1CCc2ccc(OCCCCN3CCN(c4cccc(Cl)c4Cl)CC3)cc2N1 [Aripiprazole] |  |  |  | 13 | 21 | No | 14 |  |
| O=C1C(O)=C([C@H]2CC[C@H](c3ccc(Cl)cc3)CC2)C(=O)c2ccccc21 [Atovaquone] | Yes | 39 | 95 | 54 | 96 | Yes |  |  |
| CCCC(=O)OCOC(=O)C1=C(C)NC(C)=C(C(=O)OC)C1c1cccc(Cl)c1Cl (centres unmarked) [Clevidipine butyrate] | Yes |  |  | 79 | 93 | Yes |  | Positive Screening RBD Attachment Assay % Inhibition (20 μM) [1]: 69%; Positive Screening RBD Attachment Assay % Inhibition (100 μM) [1]: 93% |
| CN(C)c1ccc(C(=C2C=CC(=[N+](C)C)C=C2)c2ccc(N(C)C)cc2)cc1 [Crystal Violet] | Yes | 73 | 99 | 17 | 86 | Yes |  |  |
| CC(C)(C)c1nc(-c2cccc(NS(=O)(=O)c3c(F)cccc3F)c2F)c(-c2ccnc(N)n2)s1 [Dabrafenib (GSK2118436), Dabrafenib] | Yes | 85 | 96 | 88 | 97 | Yes |  |  |
| C[C@@H]1CCO[C@H]2Cn3cc(C(=O)NCc4ccc(F)cc4F)c(=O)c(O)c3C(=O)N12 [Dolutegravir sodium] | Yes | > 70 | 96 | 1 | 62 | No | > 100 | EC50 [1]: 14.6 µM; Cytotoxicity to VeroE6 cells (VERO E6 cells; VeroE6 cells): not toxic; EC50 (SARS-CoV-2): 4.2 µM; EC50 ([2]; Pseudovirus, HeLa, read-out: EC50 (nM) (Wild type)): 22.9 nM; EC50 [2, 4]: 40 nM |
| CCCCc1oc2ccc(NS(C)(=O)=O)cc2c1C(=O)c1ccc(OCCCN(CCCC)CCCC)cc1 [Dronedarone hydrochloride] | Yes | 41 | 93 | 21 | 86 | Yes |  |  |
| Cc1cc(C#N)cc(C)c1Oc1nc(Nc2ccc(C#N)cc2)nc(N)c1Br [Etravirine] | Yes | > 70 | 90 | 0 | 31 | No | > 100 | EC50 [1]: 2.3 µM; Cytotoxicity to VeroE6 cells (VERO E6 cells; VeroE6 cells): not toxic; EC50 (SARS-CoV-2): 7.7 µM; EC50 [2, 4]: 6 nM; EC50 ([2]; Pseudovirus, HeLa, read-out: EC50 pseudovirus neutralization assay): 5.8 nM |
| CCOC(=O)C1=C(C)NC(C)=C(C(=O)OC)C1c1cccc(Cl)c1Cl (centres unmarked) [Felodipine] | Yes | 63 | 96 | 88 | 99 | Yes |  |  |
| CC[C@H](C)[C@H]1O[C@]2(CC[C@@H]1C)C[C@@H]1C[C@@H](C/C=C(\C)[C@@H](O[C@H]3C[C@H](OC)[C@@H](O[C@H]4C[C@H](OC)[C@@H](O)[C@H](C)O4)[C@H](C)O3)[C@@H](C)/C=C/C=C3\CO[C@@H]4[C@H](O)C(C)=C[C@@H](C(=O)O1)[C@]34O)O2 [Ivermectin] | Yes | 29 | 68 | 0 | 4 | No | 11.9 | EC50 ([1]; read-out: EC50 RBD Attachment): 22.8 µM; blocked SARS-CoV-2 infection (PRNT) (SARS-CoV-2; 10 μM): 60%; EC50 [2, 4]: 5900 nM |
| Clc1ccc(COC(Cn2ccnc2)c2ccc(Cl)cc2Cl)c(Cl)c1 (centres unmarked) [Miconazole nitrate] |  |  |  | 3 | 12 | No |  | CC50 (VERO E6 cells): 16.9 µM |
| Clc1ccc(COC(Cn2ccnc2)c2ccc(Cl)cc2Cl)c(Cl)c1 (centres unmarked) [Miconazole] |  |  |  | 6 | 15 | No | 14 |  |
| COC(=O)C1=C(C)NC(C)=C(C(=O)OCCN(C)Cc2ccccc2)C1c1cccc([N+](=O)[O-])c1 (centres unmarked) [Nicardipine hydrochloride] | Yes | 58 | 86 | 64 | 88 | Yes |  |  |
| COCCOC(=O)C1=C(C)NC(C)=C(C(=O)OC(C)C)C1c1cccc([N+](=O)[O-])c1 (centres unmarked) [Nimodipine] | Yes | 64 | 96 | 79 | 97 | Yes |  |  |
| CC(=O)Oc1ccccc1C(=O)Nc1ncc([N+](=O)[O-])s1 [Nitazoxanide] | Yes | 69 | 93 | 77 | 95 | Yes |  |  |
| OCCOc1ccc(/C(=C(/CCCl)c2ccccc2)c2ccccc2)cc1 [Ospemifene] | Yes | 39 | 68 | 3 | 8 | No |  | EC50 ([1]; EC50 RBD Attachment): 56.2 µM; Cytotoxicity to VeroE6 cells (VERO E6 cells): not toxic; CC50 (in vitro; VeroE6 CC50): > 100 µM |
| Nc1ccc(/N=N/c2ccccc2)c(N)n1 [Phenazopyridine hydrochloride] | Yes | 52 | 91 | 48 | 83 | Yes |  |  |
| CCCCCCCCCCCCCCCC[N+](C)(C)CCN(Cc1ccc(OC)cc1)c1ncccn1 [Thonzonium Bromide] | Yes | 93 | 99 | 36 | 52 | Yes |  |  |
| Gramicidin | Yes |  |  | 0 | 35 | No |  | Positive Screening RBD Attachment Assay % Inhibition (100 μM) [1]: 95%; EC50 ([1]; read-out: EC50 RBD Attachment): 5.3 µM; CC50 (VERO E6 cells): 3.9 µM; EC50 ([2]; read-out: EC50 Pseudovirus Wild Type): ~1200 nM and 1200 nM |
